# Tests used:
# RNase III = details: cited from earlier work
# FKBP12 = FKBP12 (Homo sapiens, UniProt P62942); details: cited from earlier work
# [1] = test system: FKBP12-fusion proteins (GAL4DBD-FKBP, VPAD-FKBP); assay: FK1012-inducible luciferase transcription assay in CHO cells; assay type: cell-based; details: 200 nM, 10 hours
# Protocol: Previously, syntheses of FK1012 variants either involve multi-step transformations with 18% overall yields, or a single-step cross metathesis with 50% yield with a 22-hour reaction time. […] Using dithiothreitol (DTT) as the linker, two equivalents of tacrolimus and one equivalent of DTT were coupled under the TEC reaction condition to produce FK1012-DT (Compound 15, FIG. 12) in one step within 15 minutes in quantitative yield (FIG. 12, Scheme (a)). […] For the assay, two DNA constructs were prepared, each one encoding an FKBP12-fusion protein. […]
# Cells in 24-well plates were lysed with 100 μL of 1× Passive Lysis Buffer (Promega Corporation, Madison, Wis.) at room temperature for 10 minutes on a shaker. […] 90 μL of Luciferase substrate solution (5 mg of D-luciferin and 7 mg of coenzyme A in 33mL of Luciferase reading buffer, which includes 20 mM tricine, 1.07 mM (MgCO3)4Mg(OH)2.5H2O, 2.67 mM MgSO4, 0.1 mM EDTA, 33.3 mM dithiothreitol and 0.53 mM ATP in water) was added into each well with cell lysates. The signal was read with a 3 s delay and 1 s integration with GLOMAX multi-detection system (Promega Corp., Madison, Wis.). Obtained data were analyzed by KALEIDAGRAPH (Synergy Software, Reading, Pa.).
# FKBP12, sequence (P62942 whole entry, species assumed, the tested form may be a part): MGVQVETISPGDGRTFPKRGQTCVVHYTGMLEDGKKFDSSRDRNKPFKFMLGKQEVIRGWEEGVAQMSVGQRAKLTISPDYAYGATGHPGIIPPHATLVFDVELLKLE
structure (smiles),measurement,setting,value
O=C1c2ccccc2C(=O)N1O [N-hydroxyphthalimide],affinity as RNase III inhibitor,RNase III,low affinity
"CCC(C)(C)C(=O)C(=O)N1CCCC[C@H]1C(=O)O[C@H](CCc1ccc(OC)c(OC)c1)c1cccc(N)c1 [SLF, (1R)-1-(3-aminophenyl)-3-(3,4-dimethoxyphenyl)propyl ester-1-(3,3-dimethyl-1,2-dioxopentyl)-2S-piperidinecarboxylic acid]",decrease of affinity for FKBP12 compared to tacrolimus,FKBP12,10 fold
"C=CC[C@@H]1/C=C(\C)C[C@H](C)C[C@H](OC)[C@H]2O[C@@](O)(C(=O)C(=O)N3CCCC[C@H]3C(=O)O[C@H](/C(C)=C/[C@@H]3CC[C@@H](O)[C@H](OC)C3)[C@H](C)[C@@H](O)CC1=O)[C@H](C)C[C@@H]2OC [tacrolimus, Tacrolimus]",induction of luciferase (compared to the no drug control),[1],not observed

# From US10093929B2, “Modular RNA regulators and methods” (STC.UNM, priority 2013, dated 2018)
